Assay results from the supplement of paper PMC10307832.

Experiments:
Test in all cases: relative viability (nuclei count vs DMSO), 5 days (fraction); higher = more cells survive
R406 + Lapatinib = compound: COc1cc(Nc2ncc(F)c(Nc3ccc4c(n3)NC(=O)C(C)(C)O4)n2)cc(OC)c1OC [R406] + CS(=O)(=O)CCNCc1ccc(-c2ccc3ncnc(Nc4ccc(OCc5cccc(F)c5)c(Cl)c4)c3c2)o1 [Lapatinib] (partner 2 µM)
In short: (§1)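 Lung cancer cell lines were seeded in 1536-well plates and dosed by pin tool the next day, with either a single drug or a fixed anchor-drug dose combined with five library-drug doses (not always all listed) spaced in √10 steps. Five days later, one step fixed the cells and stained their nuclei (final 0.05% Triton X-100, 1% formaldehyde, 1 ug/ml Hoechst), and nuclei were counted on 4× images. Relative viability is the nuclei count in treated wells divided by the count in vehicle wells, and each value is the median of duplicate plates.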

Daporinad + Tozasertib = compound: O=C(/C=C/c1cccnc1)NCCCCC1CCN(C(=O)c2ccccc2)CC1 [Daporinad] + Cc1cc(Nc2cc(N3CCN(C)CC3)nc(Sc3ccc(NC(=O)C4CC4)cc3)n2)n[nH]1 [Tozasertib] (partner 0.1 µM)
In short: as §1

R406 + Olaparib = compound: COc1cc(Nc2ncc(F)c(Nc3ccc4c(n3)NC(=O)C(C)(C)O4)n2)cc(OC)c1OC [R406] + O=C(c1cc(Cc2n[nH]c(=O)c3ccccc23)ccc1F)N1CCN(C(=O)C2CC2)CC1 [Olaparib] (partner 8 µM)
In short: as §1

Daporinad + Decitabine = compound: O=C(/C=C/c1cccnc1)NCCCCC1CCN(C(=O)c2ccccc2)CC1 [Daporinad] + Nc1ncn([C@H]2C[C@H](O)[C@@H](CO)O2)c(=O)n1 [Decitabine] (partner 2 µM)
In short: as §1

Cell Line | relative viability (R406 + Lapatinib; first compound 0.08 µM) | relative viability (R406 + Lapatinib; first compound 0.253 µM) | relative viability (R406 + Lapatinib; first compound 0.8 µM) | relative viability (R406 + Lapatinib; first compound 2.53 µM) | relative viability (R406 + Lapatinib; first compound 8 µM) | relative viability (Daporinad + Tozasertib; first compound 0.0005 µM) | relative viability (Daporinad + Tozasertib; first compound 0.001581 µM) | relative viability (Daporinad + Tozasertib; first compound 0.005 µM) | relative viability (Daporinad + Tozasertib; first compound 0.01581 µM) | relative viability (R406 + Olaparib; first compound 0.08 µM) | relative viability (R406 + Olaparib; first compound 0.253 µM) | relative viability (R406 + Olaparib; first compound 0.8 µM) | relative viability (R406 + Olaparib; first compound 2.53 µM) | relative viability (R406 + Olaparib; first compound 8 µM) | relative viability (Daporinad + Decitabine; first compound 0.0005 µM) | relative viability (Daporinad + Decitabine; first compound 0.001581 µM) | relative viability (Daporinad + Decitabine; first compound 0.005 µM) | relative viability (Daporinad + Decitabine; first compound 0.01581 µM)
201T | 0.868 | 1.06 | 1.02 | 0.95 | 0.905 | 0.854 | 0.94 | 1 | 0.958 | 0.853 | 0.867 | 0.873 | 0.824 | 0.515 | 0.849 | 0.917 | 0.832 | 0.881
A549 | 0.882 | 1.04 | 1.1 | 0.545 | 0.215 |  |  |  |  | 0.28 | 0.464 | 0.328 | 0.0554 | 0.306 | 0.227 | 0.252 | 0.234 | 0.161
A-427 | 0.922 | 1.14 | 1.17 | 0.958 | 0.801 | 0.207 | 0.22 | 0.198 | 0.153 | 0.717 | 0.762 | 0.853 | 0.682 | 0.435 | 0.54 | 0.571 | 0.506 | 0.493
ABC-1 | 0.85 | 1.07 | 1.09 | 0.875 | 0.705 | 0.186 | 0.185 | 0.179 | 0.209 | 0.77 | 0.805 | 0.923 | 0.501 | 0.576 | 0.807 | 1.33 | 0.987 | 0.911
BEN | 0.627 | 0.75 | 0.735 | 0.791 | 0.602 | 0.552 | 0.547 | 0.422 | 0.546 | 1.09 | 1.24 | 1.28 | 1.04 | 0.871 | 0.799 | 0.783 | 0.803 | 0.835
CAL-12T | 0.697 | 0.698 | 0.775 | 0.638 | 0.288 | 0.324 | 0.325 | 0.158 | 0.124 | 0.71 | 0.746 | 0.747 | 0.687 | 0.55 |  |  |  | 
COR-L23 | 1.02 | 1.09 | 1.49 | 1.05 | 0.47 | 0.199 | 0.232 | 0.179 | 0.106 | 0.385 | 0.354 | 0.334 | 0.246 | 0.209 | 0.43 | 0.471 | 0.437 | 0.227
COR-L 105 | 0.359 | 0.391 | 0.364 | 0.276 | 0.292 | 0.38 | 0.282 | 0.357 | 0.341 | 0.592 | 0.704 | 0.554 | 0.59 | 0.602 | 0.692 | 0.601 | 0.612 | 0.6
Calu-6 | 1.02 | 1.25 | 1.09 | 0.745 | 0.476 |  |  |  |  | 0.556 | 0.571 | 0.576 |  | 0.271 |  |  |  | 
ChaGo-K-1 |  |  |  |  |  | 0.261 | 0.225 | 0.216 | 0.192 | 0.381 | 0.485 | 0.438 | 0.422 | 0.296 | 0.534 | 0.532 | 0.355 | 0.246
EBC-1 | 0.22 | 0.226 | 0.216 | 0.233 | 0.197 |  |  |  |  | 0.671 | 0.783 | 0.843 | 0.644 | 0.369 |  |  |  | 
EKVX | 0.247 | 0.239 | 0.18 | 0.104 | 0.176 | 0.392 | 0.457 | 0.301 | 0.396 | 0.928 | 0.971 | 0.995 | 0.717 | 0.655 | 0.307 | 0.391 | 0.36 | 0.359
EMC-BAC-2 | 0.888 | 0.963 | 0.93 | 0.921 | 0.806 | 0.321 | 0.311 | 0.224 | 0.204 | 0.46 | 0.547 | 0.468 | 0.393 | 0.307 | 0.993 | 1.05 | 0.666 | 0.464
EPLC-272H | 0.888 | 0.924 | 1.1 | 0.442 | 0.228 | 0.256 | 0.292 | 0.493 | 0.4 | 0.8 | 0.754 | 0.707 | 0.325 | 0.112 | 0.318 | 0.375 | 0.378 | 0.403
H3255 | 0.257 | 0.264 | 0.249 | 0.235 | 0.233 | 0.455 | 0.605 | 0.638 | 0.716 | 0.556 | 0.607 | 0.545 | 0.512 | 0.475 | 0.464 | 0.605 | 0.863 | 0.816
HARA | 0.743 | 0.672 | 0.775 | 0.55 | 0.157 | 0.117 | 0.105 | 0.109 | 0.0561 | 0.826 | 0.496 | 0.705 | 0.779 | 0.17 | 0.351 | 0.496 | 0.442 | 0.207
HCC-15 | 0.822 | 1.02 | 0.94 |  | 0.687 | 0.476 | 0.366 | 0.749 | 0.484 | 0.653 | 0.839 | 0.675 | 0.725 | 0.505 | 0.601 | 0.714 | 0.771 | 0.766
HCC-44 | 0.899 | 1.08 | 1.12 | 0.624 | 0.619 | 0.881 | 1.03 | 1.16 | 1.05 | 0.95 | 1 | 0.954 | 0.989 | 1.06 | 0.921 | 0.988 | 1.04 | 0.95
HCC-78 | 0.673 | 0.919 | 0.888 | 0.649 | 0.354 | 0.417 |  | 0.357 | 0.637 | 0.83 | 0.896 | 0.848 | 0.656 | 0.394 | 0.805 | 0.744 | 0.669 | 0.65
